Assay results taken from patent US7622499B2, “β-Benzyloxyaspartate derivatives with photosensitive groups” (Suntory Holdings Limited, priority 2003, dated 2009).

What was measured:
[1] = Photolysis with UV lamp, photolysis rate measured by HPLC; type: physicochemical; conditions: buffer, pH 7.4
Protocol: Photolysis was conducted by the known method (Takaoka, K. et al., Bioorganic & Medicinal Chemistry Letters, 13, 965-970, 2003), and the obtained samples were quantified by HPLC or a glutamate uptake assay.
The caged inhibitor was dissolved to 100 μM in a PBS(+) solution [140 mM NaCl, 5 mM KCl, 8 mM Na2HPO4, 1.5 mM KH2PO4, 1 mM CaCl2, 1 mM MgCl2, pH 7.4], and a 300 μL portion of the solution was placed in a quartz cuvette with a 1 mm optical path and situated at a location at 10 cm from a UV lamp (Spectroline ENF-260C/J, product of Spectronics Co.), and then covered with a black box and irradiated with 365 nm UV rays at room temperature for 1-120 minutes. The luminous energy under these conditions was approximately 0.5 J/cm^2 with 10 minutes of irradiation. The irradiated sample was quantified by HPLC.
The sample was subjected to UV irradiation for a prescribed period and then analyzed by HPLC [column: SP-120-5-ODS-AP (Daiso CO.); eluent, CH3CN:H2O:TFA=32:68:0.1 or gradient from CH3CN:H2O:TFA=32:68:0.1 to 50:50:0.1], and the concentration was determined from the ratio of UV absorption at 254 nm with respect to an internal substance (3′,4′-dimethoxyacetophenone, 10 μM). The percentage with respect to the concentration prior to irradiation was calculated and graphed, and the half-life was determined.

EAAT1-5 subtypes = conditions: cited from earlier work; for inhibitory activity compared with L-TBOA: prior application of the inventors
glutamate receptor = conditions: prior art statement; cited from earlier work

## O=C(O)COc1ccc2c(COC(=O)N[C@H](C(=O)O)[C@H](OCc3ccccc3)C(=O)O)cc(=O)oc2c1 [5a, (2S,3S)-3-benzyloxy-N-[7-(carboxymethoxy)coumarin-4-ylmethoxy]carbonylaspartate]
[1]
  half-life (photolysis, decay of caged compound): 19 min

## O=C(O)COc1cc2oc(=O)cc(COC(=O)N[C@H](C(=O)O)[C@H](OCc3ccccc3)C(=O)O)c2cc1OCC(=O)O [5b, (2S,3S)-3-benzyloxy-N-[6,7-bis(carboxymethoxy)coumarin-4-ylmethoxy]carbonylaspartate]
[1]
  half-life (photolysis, decay of caged compound): 7.8 min

## N[C@H](C(=O)O)[C@H](OCc1ccccc1)C(=O)O [L-TBOA, L-threo-β-benzyloxyaspartate]
EAAT1-5 subtypes; prior art statement
  blocker activity on glutamate transporters: Particularly powerful blocker activity
Glutamate receptor
  affinity for glutamate receptor compared to existing inhibitors: lower affinity for glutamate receptor compared to existing inhibitors

## COc1ccc(C(=O)Nc2cccc(CO[C@H](C(=O)O)[C@H](N)C(=O)O)c2)cc1 [PMB-TBOA]
EAAT1-5 subtypes
  inhibitory activity compared with L-TBOA: more powerful inhibitory activity than L-TBOA

## N[C@H](C(=O)O)[C@H](OCc1cccc(NC(=O)c2ccc(C(F)(F)F)cc2)c1)C(=O)O [TFB-TBOA]
EAAT1-5 subtypes
  inhibitory activity compared with L-TBOA: more powerful inhibitory activity than L-TBOA
